From patent US8637542B2, “Kinase inhibitors and methods of use” (Intellikine, Inc., priority 2008, dated 2014) come the findings set out here.

Broadly, the IC50 is the point on the concentration scale where inhibition reaches its midpoint.

The structures appear in SMILES notation.

Format in all cases: biochemical
In one assay the target is T1, mTORC (Homo sapiens, UniProt P42345).
T1 construct: purchased Invitrogen
The assay is described as follows: In-vitro mTORC inhibition assay. On the procedure:
The compounds described herein can be tested against recombinant mTOR (Invitrogen) in an assay containing 50 mM HEPES, pH 7.5, 1 mM EGTA, 10 mM MgCl2, 2.5 mM, 0.01% Tween, 10 μM ATP (2.5 μCi of […]), and 3 μg/mL BSA. Rat recombinant PHAS-1/4EBP1 (Calbiochem; 2 mg/mL) is used as a substrate. Reactions are terminated by spotting onto nitrocellulose, which is washed with 1M NaCl/1% phosphoric acid (approximately 6 times, 5-10 minutes each). Sheets are dried and the transferred radioactivity quantitated by phosphorimaging.
Other kits or systems for assaying mTOR activity are commercially available. For instance, one can use Invitrogen's LanthaScreen™ Kinase assay to test the inhibitors of mTOR disclosed herein. This assay is a time resolved FRET platform that measures the phosphorylation of GFP labeled 4EBP1 by mTOR kinase. The kinase reaction is performed in a white 384 well microtitre plate. The total reaction volume is 20 ul per well and the reaction buffer composition is 50 mM HEPES pH7.5, 0.01% Polysorbate 20, 1 mM EGTA, 10 mM MnCl2, and 2 mM DTT. In the first step, each well receives 2 ul of test compound in 20% dimethylsulphoxide resulting in a 2% DMSO final concentration. Next, 8 ul of mTOR diluted in reaction buffer is added per well for a 60 ng/ml final concentration. To start the reaction, 10 ul of an ATP/GFP-4EBP1 mixture (diluted in reaction buffer) is added per well for a final concentration of 10 uM ATP and 0.5 uM GFP-4EBP1. The plate is sealed and incubated for 1 hour at room temperature. The reaction is stopped by adding 10 ul per well of a Tb-anti-pT46 4EBP1 antibody/EDTA mixture (diluted in TR-FRET buffer) for a final concentration of 1.3 nM antibody and 6.7 mM EDTA. The plate is sealed, incubated for 1 hour at room temperature, and then read on a plate reader set up for LanthaScreen™ TR-FRET. Data is analyzed and IC50s are generated using GraphPad Prism 5.

The target in a further assay is T2, PI3K α (Homo sapiens, UniProt P42336).
T2 construct: purchased Upstate
Description: In-vitro PI3K α inhibition assay. As to the method:
(§1) Class I PI3-Ks can be either purchased (p110α/p85α, p110β/p85α, p110β/p85α from Upstate, and p110γ from Sigma) or expressed as previously described (Knight et al., 2004). IC50 values are measured using either a standard TLC assay for lipid kinase activity (described below) or a high-throughput membrane capture assay. Kinase reactions are performed by preparing a reaction mixture containing kinase, inhibitor (2% DMSO final concentration), buffer (25 mM HEPES, pH 7.4, 10 mM MgCl2), and freshly sonicated phosphatidylinositol ([…]). Reactions are initiated by the addition of ATP containing 10 μCi of γ-32P-ATP to a final concentration 10 or 100 μM and allowed to proceed for 5 minutes at room temperature. For TLC analysis, reactions are then terminated by the addition of 105 μl 1N HCl followed by 160 μl CHCl3:MeOH (1:1). The biphasic mixture is vortexed, briefly centrifuged, and the organic phase is transferred to a new tube using a gel loading pipette tip precoated with CHCl3. This extract is spotted on TLC plates and developed for 3-4 hours in a 65:35 solution of n-propanol:1M acetic acid. The TLC plates are then dried, exposed to a phosphorimager screen (Storm, Amersham), and quantitated. For each compound, kinase activity is measured at 10-12 inhibitor concentrations representing two-fold dilutions from the highest concentration tested (typically, 200 μM).
Other commercial kits or systems for assaying PI3-K activities are available. The commercially available kits or systems can be used to screen for inhibitors and/or agonists of PI3-Ks including but not limited to PI3-Kinase α, β, δ, and γ. An exemplary system is PI3-Kinase (human) HTRF™ Assay from Upstate. […] Briefly, the assay is a time resolved FRET assay that indirectly measures PI3 product formed by the activity of a PI3-K. The kinase reaction is performed in a microtitre plate (e.g., a 384 well microtitre plate). […] The plate is sealed, incubated for 1 hour at room temperature, and then read on an appropriate plate reader. Data is analyzed and IC50s are generated using GraphPad Prism 5.

A further assay concerns the target T3, PI3K δ (Homo sapiens, UniProt O00329).
T3 construct: purchased Upstate
Description: In-vitro PI3K δ inhibition assay. As to the method:
as §1, with “The biphasic mixture is vortexed, briefly centrifuged, and the organic phase is transferred to a new tube using a gel loading pipette tip precoated with CHCl3. This extract is spotted on TLC plates and developed for 3-4 hours in a 65:35 solution of n-propanol:1M acetic acid.” left out
(§2) Other commercial kits or systems for assaying PI3-K activities are available. […] The plate is sealed, incubated for 1 hour at room temperature, and then read on an appropriate plate reader. Data is analyzed and IC50s are generated using GraphPad Prism 5.

The target of a further assay is T4, PI3K β (Homo sapiens, UniProt P42338).
T4 construct: purchased Upstate
Description: In-vitro PI3K β inhibition assay. As to the method:
as §1, with “The biphasic mixture is vortexed, briefly centrifuged, and the organic phase is transferred to a new tube using a gel loading pipette tip precoated with CHCl3. This extract is spotted on TLC plates and developed for 3-4 hours in a 65:35 solution of n-propanol:1M acetic acid.” left out
as §2

T2 sequence (P42336 whole entry): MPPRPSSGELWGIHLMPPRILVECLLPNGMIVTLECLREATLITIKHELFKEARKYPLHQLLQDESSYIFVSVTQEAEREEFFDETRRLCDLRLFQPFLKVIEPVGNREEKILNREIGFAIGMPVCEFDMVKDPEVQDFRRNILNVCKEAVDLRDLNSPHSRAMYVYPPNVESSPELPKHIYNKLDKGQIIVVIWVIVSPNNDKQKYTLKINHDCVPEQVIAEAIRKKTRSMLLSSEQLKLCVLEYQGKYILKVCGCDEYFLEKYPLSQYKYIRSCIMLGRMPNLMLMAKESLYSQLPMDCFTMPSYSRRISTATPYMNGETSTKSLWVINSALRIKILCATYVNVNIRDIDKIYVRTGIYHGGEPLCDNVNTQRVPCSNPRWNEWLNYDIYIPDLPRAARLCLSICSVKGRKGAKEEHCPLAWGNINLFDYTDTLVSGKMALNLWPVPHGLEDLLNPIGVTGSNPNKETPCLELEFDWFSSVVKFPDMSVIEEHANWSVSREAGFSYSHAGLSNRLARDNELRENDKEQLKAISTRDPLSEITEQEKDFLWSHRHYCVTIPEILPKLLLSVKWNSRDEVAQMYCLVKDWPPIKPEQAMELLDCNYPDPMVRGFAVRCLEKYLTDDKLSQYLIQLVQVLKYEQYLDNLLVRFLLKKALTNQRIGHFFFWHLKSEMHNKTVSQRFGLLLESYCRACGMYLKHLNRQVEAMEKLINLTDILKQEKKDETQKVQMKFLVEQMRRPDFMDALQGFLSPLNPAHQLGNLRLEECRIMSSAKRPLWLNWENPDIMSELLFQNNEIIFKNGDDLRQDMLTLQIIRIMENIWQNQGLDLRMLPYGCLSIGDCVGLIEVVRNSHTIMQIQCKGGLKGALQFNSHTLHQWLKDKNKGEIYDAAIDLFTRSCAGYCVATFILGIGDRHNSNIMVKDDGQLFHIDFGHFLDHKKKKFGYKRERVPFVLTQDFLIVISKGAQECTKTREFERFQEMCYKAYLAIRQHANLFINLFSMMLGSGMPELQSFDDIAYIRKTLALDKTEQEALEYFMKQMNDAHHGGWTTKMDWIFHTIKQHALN
T2 sequence (P27986 whole entry partner): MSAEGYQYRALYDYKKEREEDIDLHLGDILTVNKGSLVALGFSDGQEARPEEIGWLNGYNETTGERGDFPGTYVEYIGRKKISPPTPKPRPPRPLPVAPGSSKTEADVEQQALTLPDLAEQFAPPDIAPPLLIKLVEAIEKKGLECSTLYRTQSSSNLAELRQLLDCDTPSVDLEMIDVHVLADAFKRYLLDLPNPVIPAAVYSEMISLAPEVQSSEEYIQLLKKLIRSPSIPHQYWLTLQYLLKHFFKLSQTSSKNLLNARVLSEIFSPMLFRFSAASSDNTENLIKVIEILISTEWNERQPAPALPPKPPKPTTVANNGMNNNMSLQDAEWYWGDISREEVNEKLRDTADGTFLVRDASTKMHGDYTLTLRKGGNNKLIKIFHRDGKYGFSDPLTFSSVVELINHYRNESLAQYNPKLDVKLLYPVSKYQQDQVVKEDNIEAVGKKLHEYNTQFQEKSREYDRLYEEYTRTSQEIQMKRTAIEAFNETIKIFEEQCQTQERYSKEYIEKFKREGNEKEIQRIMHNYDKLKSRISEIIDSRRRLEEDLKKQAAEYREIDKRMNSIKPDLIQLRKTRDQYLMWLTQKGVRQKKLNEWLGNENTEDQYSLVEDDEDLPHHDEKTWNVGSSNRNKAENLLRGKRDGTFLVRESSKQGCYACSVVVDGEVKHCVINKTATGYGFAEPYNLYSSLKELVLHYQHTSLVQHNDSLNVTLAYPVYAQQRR
T1 sequence (P42345 1360-2549 limits assumed): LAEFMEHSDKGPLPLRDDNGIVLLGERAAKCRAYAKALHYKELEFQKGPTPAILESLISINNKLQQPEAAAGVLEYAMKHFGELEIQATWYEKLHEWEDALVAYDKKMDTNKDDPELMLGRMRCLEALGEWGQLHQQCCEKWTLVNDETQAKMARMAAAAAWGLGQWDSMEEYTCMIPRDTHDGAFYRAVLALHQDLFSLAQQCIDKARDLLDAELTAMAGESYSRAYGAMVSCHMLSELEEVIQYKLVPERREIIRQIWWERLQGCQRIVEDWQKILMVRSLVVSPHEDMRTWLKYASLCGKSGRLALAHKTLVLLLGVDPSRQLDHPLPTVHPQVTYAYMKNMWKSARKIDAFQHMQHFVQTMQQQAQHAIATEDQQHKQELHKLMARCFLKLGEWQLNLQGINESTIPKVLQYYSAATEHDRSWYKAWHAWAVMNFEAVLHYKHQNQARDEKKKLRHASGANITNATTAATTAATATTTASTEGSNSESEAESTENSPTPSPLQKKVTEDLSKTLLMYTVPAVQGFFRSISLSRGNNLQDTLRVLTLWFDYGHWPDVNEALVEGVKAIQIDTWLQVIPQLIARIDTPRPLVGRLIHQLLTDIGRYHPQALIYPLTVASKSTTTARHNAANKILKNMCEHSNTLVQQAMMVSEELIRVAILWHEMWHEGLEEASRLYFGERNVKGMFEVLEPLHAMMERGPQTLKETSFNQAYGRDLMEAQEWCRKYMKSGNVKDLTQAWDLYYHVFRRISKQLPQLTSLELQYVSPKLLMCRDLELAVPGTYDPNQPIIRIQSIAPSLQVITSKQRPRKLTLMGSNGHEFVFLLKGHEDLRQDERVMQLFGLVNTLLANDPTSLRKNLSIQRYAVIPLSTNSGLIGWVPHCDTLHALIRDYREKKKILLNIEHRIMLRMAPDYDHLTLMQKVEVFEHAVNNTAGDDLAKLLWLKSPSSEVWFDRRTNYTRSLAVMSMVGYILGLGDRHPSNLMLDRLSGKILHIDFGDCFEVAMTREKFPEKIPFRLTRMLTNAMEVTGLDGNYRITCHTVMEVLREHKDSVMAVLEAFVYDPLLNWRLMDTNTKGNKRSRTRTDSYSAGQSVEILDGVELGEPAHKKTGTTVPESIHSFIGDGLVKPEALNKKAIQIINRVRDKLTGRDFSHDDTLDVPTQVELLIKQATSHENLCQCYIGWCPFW
T4 sequence (P42338 whole entry): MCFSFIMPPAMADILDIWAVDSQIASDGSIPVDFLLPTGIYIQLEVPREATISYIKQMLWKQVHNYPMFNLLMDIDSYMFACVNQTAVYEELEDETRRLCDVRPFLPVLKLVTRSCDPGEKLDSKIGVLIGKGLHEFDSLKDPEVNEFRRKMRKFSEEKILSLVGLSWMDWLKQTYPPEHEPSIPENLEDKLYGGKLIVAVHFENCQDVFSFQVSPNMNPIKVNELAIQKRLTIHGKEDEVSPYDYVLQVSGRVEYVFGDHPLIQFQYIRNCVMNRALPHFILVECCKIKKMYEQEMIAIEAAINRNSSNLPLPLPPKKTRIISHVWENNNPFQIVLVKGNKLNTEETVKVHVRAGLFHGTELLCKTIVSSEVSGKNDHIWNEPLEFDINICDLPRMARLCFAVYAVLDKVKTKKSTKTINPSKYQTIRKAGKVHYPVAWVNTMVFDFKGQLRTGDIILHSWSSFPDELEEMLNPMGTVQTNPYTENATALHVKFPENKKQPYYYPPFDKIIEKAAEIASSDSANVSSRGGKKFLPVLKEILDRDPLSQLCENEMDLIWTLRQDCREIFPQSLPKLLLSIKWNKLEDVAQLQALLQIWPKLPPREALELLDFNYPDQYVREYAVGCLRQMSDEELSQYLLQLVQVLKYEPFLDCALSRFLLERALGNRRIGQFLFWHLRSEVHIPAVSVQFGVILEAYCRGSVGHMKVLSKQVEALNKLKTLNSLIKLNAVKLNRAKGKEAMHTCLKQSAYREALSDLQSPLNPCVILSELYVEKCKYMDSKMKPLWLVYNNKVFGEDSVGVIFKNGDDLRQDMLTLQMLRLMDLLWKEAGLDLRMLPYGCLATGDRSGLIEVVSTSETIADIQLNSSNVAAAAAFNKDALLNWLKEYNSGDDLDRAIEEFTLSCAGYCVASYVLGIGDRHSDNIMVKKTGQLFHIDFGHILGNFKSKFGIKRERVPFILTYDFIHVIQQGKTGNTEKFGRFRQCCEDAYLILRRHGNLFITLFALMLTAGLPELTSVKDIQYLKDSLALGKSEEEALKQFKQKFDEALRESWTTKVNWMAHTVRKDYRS
T4 sequence (P27986 whole entry partner): as the sequence (P27986 whole entry partner) above

The compound `CC(C)n1nc(-c2cc3cc(O)ccc3[nH]2)c2c(N)nccc21` [Compound 1] came in with an IC50 against mTORC of at most 1000 nM.
For the compound `CC(C)n1nc(-c2ccc3onc(N)c3c2)c2c(N)nccc21` [Compound 2], the half-inhibitory concentration (IC50) at PI3K α and against mTORC was over 1000 nM each time.
In the case of `CC(C)n1nc(-c2cnc3[nH]ccc3c2)c2c(N)nccc21` [Compound 3], the half-maximal inhibitory concentration (IC50) on PI3K α, against PI3K δ, at PI3K β and at mTORC was over 1000 nM each time.
As for `CC(C)n1nc(-c2ccc3oc(N)nc3c2)c2c(N)nccc21` [Compound 4], the values for the IC50 on PI3K α, at PI3K β and against mTORC were over 1000 nM, over 1000 nM and at most 1000 nM, respectively.
